Data reported in US20250296942A1, “Phosphonate-Based Coordination Complexes and Methods of Preparation and Use Thereof” (University of Puerto Rico, priority 2021, published 2025).

Legend:
[1] = AlamarBlue cytotoxicity, RISE and nano-Ca@RISE, hFOB 1.19; type: cell-based, human; settings: human, hFOB 1.19 osteoblast cells, hFOB 1.19, read-out: Relative cell viability (% RCL)
Procedure: (§1) Cell culture methods. The MDA-MB-231 cell line was incubated with DMEM, 1% Pen-Strep, and 10% FBS at 37° C. in 5% CO2. The hFOB 1.19 cell line was incubated with 1:1 DMEM:F-12, 0.3 mg/mL G418, and 10% FBS at 34° C. in 5% CO2. Cell passages were performed weekly at 80% of cell confluency, media was exchanged twice a week.
(§2) Cell treatments. Both cell lines were treated with RISE (control) and nano-Ca@RISE (experimental). […]. Both cell lines (MDA-MB-231 and hFOB 1.19) were seeded in 96 well plates at 2.5×10^5 cell/mL. The cells were incubated for 24 h at 37° C. (MDA-MB-231) and 34° C. (hFOB 1.19), respectively. After the initial incubation period, both cell lines were treated with 100 μL of the RISE solutions previously prepared, and incubation was performed for 24, 48, and 72 h at the respective incubation temperatures. For both cell lines, media (MDA-MB-231: DMEM, Pen-Strep) and (hFOB 1.19: DMEM, F-12, G418) were used with control groups. AlamarBlue® assay was utilized to determine cell proliferation, for this, 10% of AlamarBlue® solution in PBS was prepared. Finally, the media was removed from the 96 well plates, 100 μL of 10% AlamarBlue® solution was added, and the cells were incubated for 4 h at the same previously mentioned conditions. After the AlamarBlue® assay, the fluorescence (λexc=560 nm, λem=590 nm) was evaluated employing an Infinite M200 PRO Tecan Microplate Reader. […]. The nonlinear regression method using Graph Pad Prism 8 was applied to fit the dose-response curves (% cell live vs concentration) and determined the IC50 values for RISE.
(§3) […]. Treatments at these concentrations were carried out at 24, 48, and 72 h for RISE and nano-Ca@RISE. The cell seeding and AlamarBlue® assay were completed as described above for the IC50 determination in both cell lines. […]. All experiments were performed in triplicates and the data was statistically treated using mean, standard deviation, and the coefficient of variation percentage (% CV).
(§4) Cell culture methods for the hFOB 1.19 cell line. This cell line was grown in 1:1 mixture of Ham's F12 Medium Dulbecco's Modified Eagle's Medium accompanied with 10% FBS and 0.3 mg/ml of geneticin (G418), incubated at 34° C. in 5% CO2. Cell passage and cell treatment were performed at 80% of cell confluency. The completed growth media was exchanged every two days.
(§5) Cell seeding. The MDA-MB-231 and hFOB 1.19 cell lines were seeded in 96 well plates at a density of 2.5×10^5 cells/mL, incubation was carried out for 24 h at 37° C. for MDA-MB-231 and 34° C. for osteoblast hFOB 1.19, in 5% CO2. The experiments were conducted in triplicates, three 96 well plates were made for each treatment period (24, 48, and 72 h).
(§6) Cell treatment. To determine the half-maximal inhibitory concentration (IC50), for both cell lines, two-fold serial dilutions of RISE (0-200 μM) were prepared. To assess the relative cell live (% RCL) were employed selected […] (50, 45, 40, and 35 μM) of RISE and nano-Ca@RISE for MDA-MB-231 and hFOB 1.19 cell lines. For this, after the seeding, 100 μL of RISE and nano-Ca@RISE were used to treat the cells. The control groups were treated with just media. Both cell lines were incubated for 24, 48, and 72 h after RISE and nano-Ca@RISE solutions were added.
(§7) AlamarBlue@assay. For both cell lines, after the 24, 48, and 72 h of treatment, the media was removed from the 96 well plates. Subsequently, 100 μL of 10% AlamarBlue® solution was added and incubation was carried out for 4 h. The fluorescence (λexc=570 nm, λem=590 nm) was measured employing an Infinite M200 PRO Tecan Microplate Reader. […]. The IC50 curves and the % RCL values were plotted using the Graph Pad Prism 8 program.

[2] = system: normal osteoblast-like hFOB 1.19 cell line; test: as above; type: cell-based, human; settings: for IC50: Homo sapiens
Procedure: as §1, §2, §3, §4, §5, §6, §7

In the case of O=P(O)(O)C(O)(Cc1cccnc1)P(=O)(O)O [RISE, Monosodium risedronate hemipentahydrate], the viability at 24 h, 35 µM ([1]; 35 μM, 24 h) is reported as 100 ± 1%, the viability at 48 h, 35 µM ([1]; 35 μM, 48 h) is reported as 101% and the viability at 72 h, 35 µM ([1]; 35 μM, 72 h) is reported as 100 ± 2%. The viability at 24 h, 40 µM ([1]; 40 μM, 24 h) was 100 ± 1%, the viability at 48 h, 40 µM ([1]; 40 μM, 48 h) was 100% and the viability at 72 h, 40 µM ([1]; 40 μM, 72 h) was 100 ± 1%. For the same molecule, the viability at 24 h, 45 µM ([1]; 45 μM, 24 h) was 100 ± 1%, the viability at 48 h, 45 µM ([1]; 45 μM, 48 h) was 100 ± 1% and the viability at 72 h, 45 µM ([1]; 45 μM, 72 h) was 99 ± 2%. For the same molecule, the viability at 24 h, 50 µM ([1]; 50 μM, 24 h) was 99 ± 1%, the viability at 48 h, 50 µM ([1]; 50 μM, 48 h) was 96 ± 4% and the viability at 72 h, 50 µM ([1]; 50 μM, 72 h) was 98 ± 1%. For the same molecule, the IC50 ([2]; 24 h) was greater than 200 µM, the IC50 ([2]; 48 h) was greater than 200 µM and the IC50 ([2]; 72 h) was greater than 200 µM. For the same molecule, the cell death ([2]; hFOB 1.19, 35 and 40 μM, 24, 48, 72 h) was “no significant cell death” and the “% RCL” value ([2]; hFOB 1.19, 45 and 50 μM, time not stated) was roughly 100%.
